Patent publication US20150297562A1, “ANALGESIC” (NIPPON ZOKI PHARMACEUTICAL CO., LTD., priority 2012, published 2015)

Tested on: MIA-induced OA rats
Experiment: Analgesic action to MIA-induced osteoarthritis model rats (von Frey test, 50% reaction threshold to mechanical stimulus)
Type: in vivo, rat (male Wistar)
Settings: Rattus norvegicus, ip, single intraperitoneal dose of 200 μg/kg, von Frey test after 1 hour from administration, normal threshold value 15, read-out: Recovery rate of 50% reaction threshold value (%)
Experimental: Pharmacological Test I: Analgesic Action to Osteoarthritis Model Rats
There were conducted the following experiments for testing the analgesic action of the analgesic of the present invention using the osteoarthritis (OA) rats induced by sodium monoiodoacetate (MIA) which were model animals for OA.
(1) Preparation of MIA-Induced OA Rats
A 50% reaction threshold value to the mechanical stimulus of male Wistar rats of six weeks age was measured (the measuring method will be mentioned later) and a normal control group was selected. MIA prepared by saline was administered in a single dose of 300 μg/50 μL into right knee joint of the rats except the normal control group while 50 μL of saline was administered into left knee joint whereupon the MIA-induced OA rats were prepared. To the normal control group, 50 μL of saline was administered into the joints of both knees.
With regard to the male Wistar rats of six weeks age used as experimental animals except the normal control group, their 50% reaction threshold values to the mechanical stimulus (the measuring method will be mentioned later) and body weights were measured after […] from the administration of MIA mentioned in (1) and then 3 groups each comprising six rats [a normal control group, an onset control group and a test drug-administered group] were organized.
(3) Administration of Test Drug
A test drug solution (100 μg/mL) using the compound according to the analgesic of the present invention as a test drug was prepared using a phosphate buffered saline (PBS) containing 0.1 vol % of dimethyl sulfoxide (DMSO).
Immediately after the grouping (after 14 days from the administration of MIA), a test drug solution was intraperitoneally administered in a single dose of 200 μg/kg to a test drug-administered group. Meanwhile, to the normal control group and the onset control group, PBS containing 0.1 vol % of DMSO was intraperitoneally administered in a single dose.
(4) Result of Measurement of the 50% Reaction Threshold Values to the Mechanical Stimulus (Von Frey Test)
The three groups of rats of the above (2) were placed in a transparent acrylic cage with a wire-meshed floor and habituated for about three minutes and the 50% reaction threshold values to the mechanical stimulus were measured after 1 hour from the administration of a test drug. The measurement was conducted using von Frey filaments (manufactured by North Coast Medical Inc.) in accordance with the methods of Chaplan, et al. (Journal of Neuroscience Methods, vol. 53, no. 1, pages 55 to 63, 1994) and Dixon, et al. (Annual Review of Pharmacology and Toxicology, vol. 20, pages 441 to 462, 1980). […] The case where the rat escaped at the instance of removing the filament was also called positive. When the positive reaction was noted, stimulus was conducted similarly using a filament of one rank weaker while, when no reaction was noted, stimulus was conducted similarly using a filament of one rank stronger and the point when the reaction changed from negative to positive or from positive to negative was called the first two reactions. After that, stimulus was conducted for continuous four times by the same up-down method. A 50% reaction threshold value to the mechanical stimulus was measured using the reaction to the six stimuli in total and then (mean value)±(standard error) for each group was calculated. Incidentally, when stimulus reached by that of 15.0 g without positive reaction or, when positive reaction continued to 0.4 g, then 15.0 g or 0.25 g was adopted as each threshold value, respectively.
With regard to the 50% reaction threshold value after 1 hour from administration of a test drug, a recovery rate (%) of the 50% reaction threshold value was calculated by the following expression in which 15 was adopted as the normal threshold value. […]

SMILES	inhibition in vivo at 0.2 mg/kg [%]
CCCCCCC/C=C/C(=O)N(CC)CCN(CC)CC [Compound 44 (Citrate), (E)-N-(2-(diethylamino)ethyl)-N-ethyl dec-2-enamide]	21.7
CCCCCCC/C=C/C(=O)NCCN(CC)CC [Compound 37 (Citrate), (E)-N-2-(diethylamino)ethyl dec-2-enamide]	45.1
CCCCCCC/C=C/C(=O)NC1CCCCC1 [Compound 27, (E)-N-cyclohexyl dec-2-enamide]	5.8
CCCCCCC/C=C/C(=O)OCCN(C)C [Compound 1, (E)-2-(dimethylamino)ethyl dec-2-enoate]	25.5
CCCCCCC/C=C/C(=O)OCCOC [Compound 9, (E)-2-methoxyethyl dec-2-enoate]	13
CCCCCCC/C=C/C(=O)OCCSC(C)C [Compound 8, (E)-2-(isopropylthio)ethyl dec-2-enoate]	28.9
CCCCCCC/C=C/C(=O)NCCCCCC [Compound 22, (E)-N-hexyl dec-2-enamide]	44.3
CCCCCCC/C=C/C(=O)SCCCCCC [Compound 50, (E)-S-hexyl dec-2-enethioate]	15.6
CCCCCCC/C=C/C(=O)SCCN(CC)CC [Compound 56, (E)-S-2-(diethylamino)ethyl dec-2-enethioate]	21.8
CCCCCCC/C=C/C(=O)NCC(C)C [Compound 18, (E)-N-isobutyl dec-2-enamide]	49
CCCCCCC/C=C/C(=O)N(CCN(C)C)CCN(C)C [Compound 45, (E)-N,N-bis(2-(dimethylamino)ethyl) dec-2-enamide]	10.2
